Source: ChEMBL document CHEMBL1147486 (Bioorg Med Chem Lett, 2004)

How the values were obtained:
Mus musculus = experiment: Antiinflammatory activity, administered ip at 150 uM/kg dose was determined against carrageenan-induced mice paw edema model; assay type: functional; conditions: at 150 µmol/kg
Rattus norvegicus [1] = experiment: Hypolipidemic action at 500 uM/kg was determined as reduction in triglycerides in rat plasma; assay type: functional
Rattus norvegicus [2] = experiment: Hypolipidemic action at 500 uM/kg was determined as reduction in low density lipoprotein in rat plasma; assay type: functional
Rattus norvegicus [3] = experiment: Body weight change after once daily administration for 4 days in rats was determined; assay type: functional
Rattus norvegicus [4] = species: Rattus norvegicus; experiment: In vitro ability to inhibit the peroxidation of rat hepatic microsomal lipids; assay type: functional; conditions: Liver
Rattus norvegicus [5] = experiment: Mortality caused by the compound in rats after administration at 1350 uM/kg for 4 days; assay type: functional
Rattus norvegicus [6] = species: Rattus norvegicus; experiment: In vitro ability to inhibit the peroxidation of rat hepatic microsomal lipids at 1 mM concentration; assay type: functional; conditions: Liver
Rattus norvegicus [7] = experiment: Ulcerogenic activity administered once daily at 1350 uM/kg for 4 days was determined as no of animals showing perforating ulcers; assay type: functional
Rattus norvegicus [8] = experiment: Hypolipidemic action at 500 uM/kg was determined as reduction in total cholesterol in rat plasma
Rattus norvegicus [9] = experiment: Mortality caused by the compound in rats after administration at 1200 uM/kg for 4 days; assay type: functional
Rattus norvegicus [10] = experiment: Ulcerogenic activity administered once daily at 1200 uM/kg for 4 days was determined as no of animals showing perforating ulcers; assay type: functional
Rattus norvegicus [11] = experiment: Body weight change after once daily administration at 760 uM/kg for 4 days in rats was determined; assay type: functional
Rattus norvegicus [12] = experiment: Mortality caused by the compound in rats after administration at 760 uM/kg for 4 days; assay type: functional
Rattus norvegicus [13] = experiment: Ulcerogenic activity administered once daily at 760 uM/kg for 4 days was determined as no of animals showing perforating ulcers; assay type: functional
Rattus norvegicus [14] = experiment: Body weight change after once daily administration at 84 uM/kg for 4 days in rats was determined; assay type: functional
Rattus norvegicus [15] = experiment: Mortality caused by the compound in rats after administration at 84 uM/kg for 4 days; assay type: functional
Rattus norvegicus [16] = experiment: Ulcerogenic activity administered once daily at 84 uM/kg for 4 days was determined as no of animals showing perforating ulcers; assay type: functional
Rattus norvegicus [17] = experiment: Body weight change after once daily administration for 4 days at 84 uM/kg in rats was determined; assay type: functional
Rattus norvegicus [18] = experiment: Ulcerogenic activity administered once daily for 4 days at 84 uM/kg was determined as no of animals showing perforating ulcers; assay type: functional
Rattus norvegicus [19] = experiment: Ulcerogenic activity administered once daily at 240 uM/kg for 4 days was determined as no of animals showing perforating ulcers; assay type: functional
Rattus norvegicus [20] = experiment: Body weight change after once daily administration at 240 uM/kg for 4 days in rats was determined; assay type: functional
Rattus norvegicus [21] = experiment: Mortality caused by the compound in rats after administration at 240 uM/kg for 4 days; assay type: functional
Rattus norvegicus [22] = experiment: Body weight change after once daily administration at 200 uM/kg for 4 days in rats was determined; assay type: functional
Rattus norvegicus [23] = experiment: Mortality caused by the compound in rats after administration at 200 uM/kg for 4 days; assay type: functional
Rattus norvegicus [24] = experiment: Ulcerogenic activity administered once daily at 200 uM/kg for 4 days was determined as no of animals showing perforating ulcers; assay type: functional
Rattus norvegicus [25] = experiment: Hypolipidemic action at 300 uM/kg was determined as reduction in low density lipoprotein in rat plasma; assay type: functional
Rattus norvegicus [26] = experiment: Hypolipidemic action at 300 uM/kg was determined as reduction in total cholesterol in rat plasma; assay type: functional
Rattus norvegicus [27] = experiment: Hypolipidemic action at 300 uM/kg was determined as reduction in triglycerides in rat plasma; assay type: functional
Rattus norvegicus [28] = experiment: Body weight change after once daily administration at 1600 uM/kg for 4 days in rats was determined; assay type: functional
Rattus norvegicus [29] = experiment: Mortality caused by the compound in rats after administration at 1600 uM/kg for 4 days; assay type: functional
Rattus norvegicus [30] = experiment: Ulcerogenic activity administered once daily at 1600 uM/kg for 4 days was determined as no of animals showing perforating ulcers; assay type: functional
Rattus norvegicus [31] = experiment: Hypolipidemic action at 250 uM/kg was determined as reduction in low density lipoprotein in rat plasma; assay type: functional
Rattus norvegicus [32] = experiment: Hypolipidemic action at 250 uM/kg was determined as reduction in total cholesterol in rat plasma; assay type: functional
Rattus norvegicus [33] = experiment: Hypolipidemic action at 250 uM/kg was determined as reduction in triglycerides in rat plasma; assay type: functional

| SMILES | Edema inhibition (Mus musculus) | Paw weight increase (Mus musculus) | Decrease (Rattus norvegicus [1]) | Decrease (Rattus norvegicus [2]) | Decrease (Rattus norvegicus [8]) | also measured |
| --- | --- | --- | --- | --- | --- | --- |
| CCOC(=O)[C@@H](N)CS.COc1ccc2c(c1)c(CC(=O)O)c(C)n2C(=O)c1ccc(Cl)cc1 | 32.8% | 25.8% | – | – | – | – |
| CCOC(=O)[C@H](CS)NC(=O)C(C)c1ccc2cc(OC)ccc2c1 (stereo not given in full) | 37.1% | 35.6% | 29.6% | 46.8% | 33.8% | Body weight change (Rattus norvegicus [3]): 9.2 g (100g of body weight)-1; IC50 (Rattus norvegicus [4]): 28 µM; Mortality (Rattus norvegicus [5]): 0%; inhibition (Rattus norvegicus [6]): 100%; Ulcerogenic activity (Rattus norvegicus [7]): 0% |
| O=C(O)c1ccccc1Nc1cccc(C(F)(F)F)c1 [FLUFENAMIC ACID] | 19% | 55.4% | – | – | – | Body weight change (Rattus norvegicus [3]): -9.2 g (100g of body weight)-1; Mortality (Rattus norvegicus [9]): 50%; Ulcerogenic activity (Rattus norvegicus [10]): 50% |
| Cc1c(Cl)cccc1Nc1ccccc1C(=O)O [TOLFENAMIC ACID] | 24% | 27.6% | – | – | – | Body weight change (Rattus norvegicus [11]): -5.3 g (100g of body weight)-1; Mortality (Rattus norvegicus [12]): 50%; Ulcerogenic activity (Rattus norvegicus [13]): 50% |
| CCOC(=O)[C@@H](N)CS.Cc1c(Cl)cccc1Nc1ccccc1C(=O)O | 25.9% | 25.5% | – | – | – | – |
| COc1ccc2c(c1)c(CC(=O)O)c(C)n2C(=O)c1ccc(Cl)cc1 [INDOMETHACIN] | 41.6% | 22.5% | 78.6% | 72.2% | 74.4% | Body weight change (Rattus norvegicus [14]): -13 g (100g of body weight)-1; Mortality (Rattus norvegicus [15]): 50%; Ulcerogenic activity (Rattus norvegicus [16]): 80% |
| CCOC(=O)[C@@H](N)CS | 24.9% | 29.2% | – | – | – | – |
| COc1ccc2cc([C@H](C)C(=O)O)ccc2c1 [NAPROXEN] | 11% | 50.4% | 25.5% | 43.5% | 53% | Body weight change (Rattus norvegicus [3]): -15.8 g (100g of body weight)-1; Mortality (Rattus norvegicus [5]): 50%; Ulcerogenic activity (Rattus norvegicus [7]): 100% |
| CCOC(=O)[C@H](CS)NC(=O)Cc1c(C)n(C(=O)c2ccc(Cl)cc2)c2ccc(OC)cc12 | 63.3% | 14.1% | 19.8% | 60.5% | 37% | Body weight change (Rattus norvegicus [17]): 3.4 g (100g of body weight)-1; IC50 (Rattus norvegicus [4]): 51 µM; Mortality (Rattus norvegicus [15]): 0%; inhibition (Rattus norvegicus [6]): 100%; Ulcerogenic activity (Rattus norvegicus [18]): 0% |
| O=C([O-])Cc1ccccc1Nc1c(Cl)cccc1Cl.[Na+] [DICLOFENAC SODIUM] | 37.1% | 24.5% | 96.1% | 86.3% | 87.4% | Ulcerogenic activity (Rattus norvegicus [19]): 75% |
| CCOC(=O)[C@H](CS)NC(=O)Cc1ccccc1Nc1c(Cl)cccc1Cl | 59.3% | 11.8% | 31.6% | 92.6% | 54.7% | Body weight change (Rattus norvegicus [20]): 3.1 g (100g of body weight)-1; IC50 (Rattus norvegicus [4]): 27 µM; Mortality (Rattus norvegicus [21]): 0%; inhibition (Rattus norvegicus [6]): 100%; Ulcerogenic activity (Rattus norvegicus [19]): 0% |
| CC(C(=O)O)c1cccc(C(=O)c2ccccc2)c1 (stereo not given) [KETOPROFEN] | – | 35.9% | – | – | – | Body weight change (Rattus norvegicus [22]): -18.9 g (100g of body weight)-1; Mortality (Rattus norvegicus [23]): 50%; Ulcerogenic activity (Rattus norvegicus [24]): 83% |
| CCOC(=O)[C@@H](N)CS.O=C(O)c1ccccc1Nc1cccc(C(F)(F)F)c1 | 9% | 61.9% | – | – | – | – |
| CC(C)Cc1ccc(C(C)C(=O)O)cc1 (stereo not given) [IBUPROFEN] | 35.6% | 31.7% | – | – | – | Decrease (Rattus norvegicus [25]): 31.6%; Decrease (Rattus norvegicus [26]): 38.2%; Decrease (Rattus norvegicus [27]): 41.6%; Body weight change (Rattus norvegicus [28]): -12.7 g (100g of body weight)-1; Mortality (Rattus norvegicus [29]): 50%; Ulcerogenic activity (Rattus norvegicus [30]): 88% |
| CC(C(=O)O)c1cccc(C(=O)c2ccccc2)c1.CCOC(=O)[C@@H](N)CS (stereo not given) | 39% | 41.6% | – | – | – | – |
| CCOC(=O)[C@@H](N)CS.COc1ccc2cc(C(C)C(=O)O)ccc2c1 (stereo not given) | 38.1% | 30.1% | – | – | – | – |
| CCOC(=O)[C@H](CS)NC(=O)C(C)c1ccc(CC(C)C)cc1 (stereo not given in full) | 61.2% | 19.1% | – | – | – | Decrease (Rattus norvegicus [31]): 68.7%; Decrease (Rattus norvegicus [32]): 48.1%; Decrease (Rattus norvegicus [33]): 27.5%; Body weight change (Rattus norvegicus [3]): 1 g (100g of body weight)-1; IC50 (Rattus norvegicus [4]): 38 µM; Mortality (Rattus norvegicus [29]): 0%; inhibition (Rattus norvegicus [6]): 100%; Ulcerogenic activity (Rattus norvegicus [30]): 0% |
| CCOC(=O)[C@@H](N)CS.O=C([O-])Cc1ccccc1Nc1c(Cl)cccc1Cl.[Na+] | 27.7% | 28.2% | – | – | – | – |
| CCOC(=O)[C@H](CS)NC(=O)C(C)c1cccc(C(=O)c2ccccc2)c1 (stereo not given in full) | 29% | 48% | – | – | – | Body weight change (Rattus norvegicus [22]): 0.3 g (100g of body weight)-1; IC50 (Rattus norvegicus [4]): 650 µM; Mortality (Rattus norvegicus [23]): 0%; inhibition (Rattus norvegicus [6]): 100%; Ulcerogenic activity (Rattus norvegicus [24]): 0% |
